Source: publication PMC10098121, “Amphipathic barbiturates as marine product mimics with cytolytic and immunogenic effects on head and neck squamous cell carcinoma cell lines” (Frontiers in Pharmacology, 2023)

How the values were obtained:
Assay type in all cases: cell-based, human
HSC-3 cells [1] = test: MTS viability assay with bafilomycin A1 and z-VAD-FMK; settings: HSC-3, 24 h; cisplatin 50 µM, MPM-2:0/MPM-6:0 5 µM, MPM-3:2/MPM-4:2 10 µM
Description: HSC-3 and UT-SCC-24A cells were seeded, 10,000 cells/well, in flat bottom 96-well plates and left to adhere overnight. The supernatants were then removed and replaced by 50 µl of complete DMEM/F-12 ± 100 nM BafA1 (#196000, Sigma-Aldrich, St. Louis, MO, United States) or 50 µM z-VAD-FMK (#219007, Sigma-Aldrich). The plate was then incubated for 1 hour before another 50 µl of complete DMEM/F-12 ± 100 nM BafA1 or 50 µM z-VAD-FMK as well as the MPMs or cisplatin was added. The final concentration of cisplatin was 50 µM and for the MPMs it was 5 or 10 µM for MPM-2:0 and MPM-6:0, and 10 or 20 µM for MPM-3:2 and MPM-4:2, for HSC-3 and UT-SCC-24A cells, respectively. 100 μl of media ± 1% Triton X-100 served as […]. The cells were incubated for 24 h before 20 µl of MTS reagent (CellTiter 96® Aqueous One Solution, Promega, Madison, WI, United States) was added to each well. The plate was then incubated for one more hour before absorbance was measured at 490 nm on a VersaMaxTM Microplate reader (Molecular Devices, San Jose, CA, United States). Viability was calculated using the following formula: %=Abs treated sample−Abs positive control/Abs negative control−Abs positive control x 100
At least three independent experiments were performed, with triplicate wells in each experiment.

[2] = tested on: cell surface calreticulin on UT-SCC-24A cells; test: Flow cytometric detection of cell surface calreticulin; settings: 24 h, cisplatin 50 µM, MPMs 5-20 µM, vs untreated
Description: This procedure was based on a published method ([Liu et al., 2020]), but was performed with some modifications. Briefly, HSC-3 and UT-SCC-24A cells were seeded, 300,000 cells/well, in 6-well plates and left to adhere overnight. The media was then removed and replaced by 2 ml complete DMEM/F-12 containing 5, 7.5, 10 or 20 µM of MPM-2:0, MPM-6:0, MPM-3:2 or MPM-4:2, or 50 µM cisplatin. Some cells were left untreated. The cells were then incubated for 24 h. Next, the cell supernatants were collected before the cells were trypsinized and spun down with the supernatants. The cells were then washed in PBS before being incubated with the viability dye Zombie Violet (#423114, BioLegend, San Diego, CA, United States) diluted 1:500 in PBS for 20 min. Next, the cells were incubated with an anti-calreticulin antibody (#ab2907, Abcam) diluted 1:100 in FACS buffer (2%BSA in PBS) for 30 min. The cells were then fixed in 4% formaldehyde for 15 min and washed twice in FACS buffer before being incubated with the secondary antibody (#A11034, Thermo Fisher Scientific) diluted 1:250 in FACS buffer for 30 min. The cells were washed in FACS buffer and analyzed on a LSR Fortessa (BD Biosciences) within 1 week. Analyses were performed in FlowJo™ v.10 (https://www.flowjo.com/).

UT-SCC-24A cells = test: Western blot for extracellular HMGB1; settings: 24 h, supernatant
Description: Detection of HMGB1 in the supernatant of MPM treated HSC-3 and UT-SCC-24A cells was performed as previously described ([von Hofsten et al., 2022]). Briefly, HSC-3 and UT-SCC-24A cells were seeded, 100,000 cells/well in 12-well plates and left to adhere overnight. The following day, the media was removed and replaced with media containing either 50 µM cisplatin, 5 or 10 µM MPM-2:0 or MPM-6:0, or 10 or 20 µM MPM-3:2 or MPM-4:2. The cells were incubated for 24 h before supernatants were collected and centrifuged to remove debris. Supernatant samples were mixed with DTT (final concentration 50 mM) and sample buffer before being boiled for 5 min and loaded on a NuPAGE® 10% Bis–Tris Gel (Thermo Fisher Scientific) before being electro-transferred to a polyvindiline dilfluoride (PVDF) immobilon-P membrane (Merck, Rahway, NJ, United States). The membrane was blocked for 1 h with 5% non-fat dry milk in TBST and then incubated overnight at 4°C with the primary antibody targeting HMGB1 (#ab18256, Abcam) diluted 1:1,000 in TBST 5% non-fat dry milk. Next, the membrane was washed three times in TBST and incubated with an HRP-conjugated goat anti-rabbit secondary antibody (#4050-05, Southern Biotech, Birmingham, AL, United States) diluted 1:2000 in TBST 5% non-fat dry milk at room temperature for 1 h. […]

HSC-3 cells [3] = test: Scratch wound migration assay; settings: for wound closure in migration assay (in words): HSC-3, 10 µM, 24 h; for wound closing at the lower concentrations (in words): HSC-3, 0.1 or 1 µM, text does not separate migration and invasion
Description: Two Incucyte image lock 96-well plates (#4379, Sartorius) were coated with 50 µl myogel (0.5 mg/ml) per well. The next day, the media remaining in the wells was removed before HSC-3 cells were seeded at a density of 25,000 cells/well in 100 µl. The cells were left to adhere, and the following day, a scratch was made in the middle of each well using the Incucyte 96-pin WoundMaker tool (Sartorius). The wells were then washed once with media. For the migration assay, the media in each well was then replaced with 100 µl of media containing 0.1, 1 or 10 µM of MPM-2:0 or MPM-4:2. For the invasion assay, the media was replaced by 50 µl of a gel consisting of serum-free media, myogel (2.4 mg/ml), type I rat tail collagen (0.8 mg/ml, Corning, NY, USA) and 0.1, 1 or 10 µM of MPM-2:0 or MPM-4:2. The plate was incubated at 37°C for 1 h to let the gel solidify. Next, 100 µl of media, also containing 0.1, 1 or 10 µM of MPM-2:0 or MPM-4:2 was added on top of the gel. Both the migration and invasion plates were placed in the Incucyte S3 (Sartorius) and imaged at ×10 magnification every 2 hours for 24 h in total. The Incucyte software was used to analyze the relative wound density.

N.N.[Cl][Pt][Cl] [Cisplatin, cisplatin, reference compound]
viability in the presence of BafA1 (100 nM) or z-VAD-FMK (50 µM) (in words) (HSC-3 cells [1]): z-VAD-FMK seemed to have some protective effects against cisplatin for both cell lines, while BafA1 had the opposite effect
cell surface expression of calreticulin (in words) [2]: did not induce any cell surface expression of calreticulin

NCCN1C(=O)N(CCN)C(=O)C(CCCc2ccccc2)(CCCc2ccccc2)C1=O [MPM-2:0]
release of HMGB1 (in words) (UT-SCC-24A cells): statistically significant
wound closure in migration assay (in words) (HSC-3 cells [3]): induced cell death so quickly that it was not possible to study the effect on migration or invasion
wound closing at the lower concentrations (in words) (HSC-3 cells [3]): trend towards faster wound closing

CN(C)CCCCN1C(=O)N(CCCCN(C)C)C(=O)C(CCCc2ccccc2)(CCCc2ccccc2)C1=O [MPM-4:2]
wound closure in migration assay (in words) (HSC-3 cells [3]): required more time to close the wound
wound closing at the lower concentrations (in words) (HSC-3 cells [3]): trend towards faster wound closing

NCCCCCCN1C(=O)N(CCCCCCN)C(=O)C(CCCc2ccccc2)(CCCc2ccccc2)C1=O [MPM-6:0]
viability in the presence of BafA1 (100 nM) or z-VAD-FMK (50 µM) (in words) (HSC-3 cells [1]): z-VAD-FMK increase viability more than BafA1
cell surface expression of calreticulin (in words) [2]: statistically significant levels of cell surface calreticulin
release of HMGB1 (in words) (UT-SCC-24A cells): statistically significant
